Results taken from patent EP4656642A1, “ESTROGEN RECEPTOR PROTEOLYSIS TARGETING CHIMERA COMPOUND AND USE THEREOF” (GAN & LEE PHARM CO., LTD, priority 2023, dated 2024).

Legend:
Assay type in all cases: cell-based
T-47D cells = experiment: Inhibition of cell proliferation in T-47D cells (CCK-8, 6 days); settings: 6 days of treatment, Table 3
Procedure, shortened: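 Viability read-out was CCK-8 after 6 days of compound treatment (37 °C, 5% CO2) across graded concentrations. Cells were T-47D seeded at 3,000 per well in 1640 medium plus 10% FBS. IC50 was calculated against proliferation.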

MCF-7 cells = experiment: Inhibition of cell proliferation of MCF-7 cells (CCK-8, 9 days); settings: treated for 9 days, CCK-8 kit (Table 6)
Procedure, shortened: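 Read-out was CCK-8 viability after 9-day continuous exposure (37°C, 5% CO2) of MCF-7 cells plated at 800/well in 10% FBS DMEM across several compound concentrations. Values are proliferation IC50s.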

ERα [1] = molecular target: T1, ERα (Homo sapiens, UniProt P03372); experiment: Degradation of ERα in MCF-7 cells (immunoblotting, 4 h)
T1 sequence (P03372 1-595): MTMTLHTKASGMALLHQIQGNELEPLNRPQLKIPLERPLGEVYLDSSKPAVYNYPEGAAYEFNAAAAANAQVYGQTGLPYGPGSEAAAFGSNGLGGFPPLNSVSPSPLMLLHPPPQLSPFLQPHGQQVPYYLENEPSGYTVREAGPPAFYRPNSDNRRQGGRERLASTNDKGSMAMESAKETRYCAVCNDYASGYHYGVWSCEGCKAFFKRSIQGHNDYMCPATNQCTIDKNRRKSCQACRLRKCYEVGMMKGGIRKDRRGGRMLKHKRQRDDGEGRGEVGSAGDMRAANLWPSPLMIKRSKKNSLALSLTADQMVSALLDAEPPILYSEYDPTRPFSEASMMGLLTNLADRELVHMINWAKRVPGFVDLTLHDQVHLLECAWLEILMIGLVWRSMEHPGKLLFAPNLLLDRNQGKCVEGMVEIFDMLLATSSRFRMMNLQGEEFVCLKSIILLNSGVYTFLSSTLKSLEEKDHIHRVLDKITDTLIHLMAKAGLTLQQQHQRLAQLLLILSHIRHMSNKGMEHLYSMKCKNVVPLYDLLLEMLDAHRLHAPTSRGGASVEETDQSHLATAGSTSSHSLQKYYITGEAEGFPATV
Procedure, shortened: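 Degradation rate reflects ERα band intensity, corrected to an internal reference protein, relative to control. Values come from Western blotting of lysates from MCF-7 cells exposed 4 h at 37°C to compounds at final concentrations of 0.15-1000nM.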

ERα [2] = molecular target: T1, ERα; experiment: Degradation of ERα in T-47D cells (immunoblotting, 4 h); parameters: host or cells: T-47D
Procedure, shortened: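 ERα protein levels were assessed by immunoblot of RIPA lysates (with protease inhibitor) after 4 h exposure at 37°C. Compound was added in DMSO to T-47D cells at final concentrations of 0.15-1000 nM.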

SMILES | IC50 (T-47D cells) [nM] | IC50 (MCF-7 cells) [nM] | Degradation rate (%) of ERα in MCF-7 cells (ERα [1]; 1nM compound) [%] | Degradation rate (%) of ERα in MCF-7 cells (ERα [1]; 10nM compound) [%] | Degradation rate (%) of ERα in T-47D cells (ERα [2]; 1nM compound) [%] | Degradation rate (%) of ERα in T-47D cells (ERα [2]; 10nM compound) [%]
C[C@@H]1Cc2c(ccc3[nH]ncc23)[C@@H](c2ccc(N3CCN(C[C@H]4CC[C@H](C(=O)N5CCC6(CC5)COc5c6ccc6c5CN(C5CCC(=O)NC5=O)C6=O)CC4)CC3)cn2)N1CC(F)(F)F (stereo partly drawn) [A117] | 10.1 | 63.3 | 48 | 47 | 66 | 77
O=C1CCC(N2Cc3c(ccc4c3OCC43CCN(C4CCN(C5CC6(CCN(c7ccc([C@@H]8c9ccc(O)cc9CC[C@@H]8c8ccccc8)cc7)CC6)C5)[C@H](C(=O)NC5CCCC5)C4)CC3)C2=O)C(=O)N1 (stereo partly drawn) [H44] | 3.74 | 5.06 | 36 | 73 | 53 | 85
O=C1CCC(N2Cc3cc4c(cc3C2=O)CCC2(CN(C(=O)C3CCN(c5ccc([C@@H]6c7ccc(O)cc7CC[C@@H]6c6ccccc6)cc5)CC3)C2)O4)C(=O)N1 (stereo partly drawn) [A50] | 4.16 | 4080 | 11 | 27 | 24 | 53
C[C@@H]1CC2(CCN(c3ccc([C@@H]4c5ccc(O)cc5CC[C@@H]4c4ccccc4)cc3)CC2)CN1CC(=O)N1CCC2(CC1)COc1c2ccc2c1CN(C1CCC(=O)NC1=O)C2=O (stereo partly drawn) [A90] | 1.78 | 52.8 | 50 | 72 | 42 | 79
COC(=O)[C@@H]1C[C@H](N2CCC3(CC2)COc2c3ccc3c2CN(C2CCC(=O)NC2=O)C3=O)CCN1C1CC2(CCN(c3ccc([C@@H]4c5ccc(O)cc5CC[C@@H]4c4ccccc4)cc3)CC2)C1 (stereo partly drawn) [H31] | 1.8 | 43.3 | 46 | 83 | 55 | 85
CC1CN(C2CC3(CCN(c4ccc([C@@H]5c6ccc(O)cc6CC[C@@H]5c5ccccc5)cc4)CC3)C2)CCC1N1CCC2(CC1)COc1c2ccc2c1CN(C1CCC(=O)NC1=O)C2=O (stereo partly drawn) [K20] | 2.59 | 19.6 | 37 | 70 | 4 | 44
CC1(CN2CCC3(CC2)COc2c3ccc3c2CN(C2CCC(=O)NC2=O)C3=O)CCN(C(=O)C2CCN(c3ccc([C@@H]4c5ccc(O)cc5CC[C@@H]4c4ccccc4)cc3)CC2)CC1 (stereo partly drawn) [A109] | 2.93 | 42.8 | 10 | 54 | 31 | 75
O=C1CCC(N2Cc3c(ccc4c3OCC43CCN(C4CCN(C(=O)C5CCN(c6ccc([C@@H]7c8ccc(O)cc8CC[C@@H]7c7ccccc7)cc6)CC5)[C@@H](C(=O)N5CC(F)(F)C5)C4)CC3)C2=O)C(=O)N1 (stereo partly drawn) [C4] | 1.17 | 67 | 38 | 75 | 54 | 85
O=C1CCC(N2Cc3c(ccc4c3OCC43CCN(C4CC5(CCN(c6ccc([C@@H]7c8ccc(O)cc8CC[C@@H]7c7ccccc7)cc6)CC5)C4)CC3)C2=O)C(=O)N1 (stereo partly drawn) [L16] | 7.09 | 39 | 29 | 51 | 29 | 64
O=C1CCC(N2Cc3c(ccc4c3OCC43CCN(C(=O)CN4CC[C@]5(CCN(c6ccc([C@@H]7c8ccc(O)cc8CC[C@@H]7c7ccccc7)cc6)C5)C4)CC3)C2=O)C(=O)N1 (stereo partly drawn) [H21] | 1.02 | 163 | 18 | 37 | 35 | 65
C[C@@H]1Cc2c(ccc3[nH]ncc23)[C@@H](c2c(F)cc(N3CCN(C[C@H]4CC[C@H](C(=O)N5CCC6(CC5)COc5c6ccc6c5CN(C5CCC(=O)NC5=O)C6=O)CC4)CC3)cc2F)N1CC(F)F (stereo partly drawn) [C12] | 37.4 | 180 | -34 | 22 | 27 | 47
O=C1CCC(N2C(=O)c3cc4c(cc3C2=O)C2(CCN(C3CC5(CCN(c6ccc([C@@H]7c8ccc(O)cc8CC[C@@H]7c7ccccc7)cc6)CC5)C3)CC2)CO4)C(=O)N1 (stereo partly drawn) [A34] | 68 | 174 | 4 | 13 | 5 | 28
CC1CN(C(=O)C2CCN(c3ccc(C4c5ccc(O)cc5CCC4c4ccccc4)cc3)CC2)CCC1N1CCC2(CC1)COc1c2ccc2c1CN(C1CCC(=O)NC1=O)C2=O (stereo not drawn) [K23] | 1.04 | 5.67 | 57 | 78 | 61 | 86
O=C1CCC(N2Cc3c(ccc4c3OCC43CCN(CC4(F)CCN(C(=O)C5CCN(c6ccc([C@@H]7c8ccc(O)cc8CC[C@@H]7c7ccccc7)cc6)CC5)CC4)CC3)C2=O)C(=O)N1 (stereo partly drawn) [A105] | 1.3 | 26600 | 7 | 43 | 38 | 73
C[C@@H]1Cc2c(ccc3[nH]ncc23)[C@@H](c2c(F)cc(N3CCC4(CCN(CC(=O)N5CCC6(CC5)COc5c6ccc6c5CN(C5CCC(=O)NC5=O)C6=O)C4)CC3)cc2F)N1CC(F)F (stereo partly drawn) [C11] | 0.66 | 5970 | 60 | 69 | 56 | 68
O=C1CCC(N2Cc3c(ccc4c3OCC43CCN(CCN4CCC5(CCN(c6ccc([C@@H]7c8ccc(O)cc8CC[C@@H]7c7ccccc7)cc6)CC5)C4)CC3)C2=O)C(=O)N1 (stereo partly drawn) [N4] | 3 | 132 | 54 | 73 | 64 | 85
C[C@@H]1Cc2c([nH]c3ccccc23)[C@@H](c2c(F)cc(N3CCN(C[C@H]4CC[C@H](C(=O)N5CCC6(CC5)COc5c6ccc6c5CN(C5CCC(=O)NC5=O)C6=O)CC4)CC3)cc2F)N1CC(F)F (stereo partly drawn) [A114] | 1.18 | 10.3 | 46 | 62 | 48 | 73
